# Data as given in US20240299559A1, “COMPOUNDS THAT MEDIATE PROTEIN DEGRADATION AND METHODS OF USE THEREOF” (Monte Rosa Therapeutics, Inc., priority 2021, published 2024).
# Assays:
# [1] = molecular target: T1, CDK2 (Homo sapiens, UniProt P24941); assay: CDK2 HiBiT assay (degradation, Dmax); format: cell-based; details: HEK293 clonal lines with CRISPR KI HiBiT tag on CDK2, stably expressing LgBiT; 24 hours incubation
# T1 construct: HEK293 clonal lines with CRISPR KI HiBiT tag on CDK2 proteins; host or cells: HEK293 clonal line with CRISPR knock-in HiBiT on CDK2, stably expressing LgBiT
# Method: HEK293 clonal lines with CRISPR KI HiBiT tag on CDK2 proteins and stably expressing LgBiT protein were obtained from Promega (Madison, WI). Cells were plated at 5000 cells per well using Multiflo (BioTek) in 384-well white solid bottom plates (Corning, 3570BC) in 25 ul volume in DMEM media (DMEM, high glucose, HEPES, no phenol red (ThermoFisher Scientific, 21063029)) containing 10% FBS (Corning, 35-075-CV), 1% Penicillin/Streptomycin (ThermoFisher Scientific, 15140-122). Cells were incubated for 16 hours at 37° C., 5% CO2. 75 nL of a compound at 30 μM were dosed into the plate using an Echo® 650 liquid handler (Labcyte). Cells were incubated at 37° C., 5% CO2 for 24 hours. 5 ul of HiBiT Lysis Reagent (Promega, N3030) is added using Combi Multidrop (ThermoFisher Scientific), plates are incubated for 15′ at 37° C., 5% CO2 and then signal was read on a Pherastar FSX using “LUM plus” optic module.
# Analysis was performed in Scinamic (Scinamic, Cambridge, MA). Luminescence response (R) was calculated by the formula: response=100*(S−N)/(P−N) where S is the signal of the well, N and P the mean negative and positive control values respectively of the same plate. The luminescence response was then fitted in Scinamic using a 3-parameter agonist logistic fit (hillslope=1, EC50>0, top/bottom unconstrained).
# [2] = molecular target: CRBN-DDB1 (Homo sapiens, UniProt Q96SW2); assay: Compound binding to CRBN by HTRF assay; details: CRBN-DDB1 2.5 nM, Cy5-Thalidomide 100 nM probe; Ki from geometric mean of IC50 by Cheng-Prustoff transformation
# Method: Compound activity was monitored in a Homogenous Time-Resolved Fluorescence (HTRF) assay using 1-[5-({2-[2-(2-{[2-(2,6-dioxopiperidin-3-yl)-1,3-dioxo-2,3-dihydro-1H-isoindol-4-yl]oxy}acetamido)ethoxy]ethyl}carbamoyl)pentyl]-3,3-dimethyl-2-[(1E,3E)-5-[(2E)-1,3,3-trimethyl-5-sulfo-2,3-dihydro-1H-indol-2-ylidene]penta-1,3-dien-1-yl]-3H-indol-1-ium-5-sulfonate as a fluorescent probe. Biochemical assays were conducted in Greiner white 384 well HiBase plates (Cat. No 784075-25) in 10 μL total volume. A one pot detection solution of CRBN-DDB1 (2.5 nM), Anti-His Terbium Cryptate Gold (1×, PerkinElmer Cat. #: 61HI2TLB), and Cy5-Thalidomide (100 nM, Tenova Cat.: T52461) was prepared in 20 mM HEPES, 20 mM NaCl, 0.2 mM TCEP, 0.2 mM EDTA, and 0.005% Tween20 was dispensed to each assay plate. Compounds were stored in dry, ambient temperatures at 10 mM. A 10-point, 1:3 dilution series was prepared from 10 mM stock concentrations in Echo-compatible LDV plates. 10 nL of each compound dilution series was dispensed into assays wells using an Echo 650 (Labcyte inc. USA). 10 nL of 10 mM Lenalidomide was transferred into the active-control wells for the assay and 10 nL of DMSO was transferred into the neutral-control wells. The assay was then allowed to incubate for 30 min at ambient temperature after transferring compound. Plate measurements were taken on a Pherastar FSX (BMG Labtech, Germany) using the HTRF Red filter (Ex. 337 nm, em1:620 nm, em2:665 nm) (Flashes: 50, Integration time: 60-400 us, Z-height: 10 mm, Ratio-multipler: 10,000). The HTRF signal was then subsequently normalized to the neutral and active controls. Analysis and IC50 values were derived using KNIME analytics (KNIME Zurich) transformation and fitting within Collaborative Drug Discovery (Collaborative Drug Discovery USA). Ki was derived from the geometric mean of the IC50 values using the Cheng-Prustoff transformation.
# Chain of CRBN-DDB1 (Q96SW2 whole entry): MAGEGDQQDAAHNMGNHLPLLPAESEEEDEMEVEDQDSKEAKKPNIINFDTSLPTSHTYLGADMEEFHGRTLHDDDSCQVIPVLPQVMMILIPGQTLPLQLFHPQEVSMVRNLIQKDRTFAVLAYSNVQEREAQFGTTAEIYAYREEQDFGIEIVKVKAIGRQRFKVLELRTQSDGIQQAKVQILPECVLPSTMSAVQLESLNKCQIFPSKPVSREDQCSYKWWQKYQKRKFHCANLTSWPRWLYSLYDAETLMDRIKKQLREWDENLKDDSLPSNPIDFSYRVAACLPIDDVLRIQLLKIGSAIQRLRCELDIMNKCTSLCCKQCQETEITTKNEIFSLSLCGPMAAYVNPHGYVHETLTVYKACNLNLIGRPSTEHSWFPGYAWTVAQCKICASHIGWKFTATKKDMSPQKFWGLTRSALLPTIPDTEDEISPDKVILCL
# Chain of CRBN-DDB1 (Q16531 whole entry partner): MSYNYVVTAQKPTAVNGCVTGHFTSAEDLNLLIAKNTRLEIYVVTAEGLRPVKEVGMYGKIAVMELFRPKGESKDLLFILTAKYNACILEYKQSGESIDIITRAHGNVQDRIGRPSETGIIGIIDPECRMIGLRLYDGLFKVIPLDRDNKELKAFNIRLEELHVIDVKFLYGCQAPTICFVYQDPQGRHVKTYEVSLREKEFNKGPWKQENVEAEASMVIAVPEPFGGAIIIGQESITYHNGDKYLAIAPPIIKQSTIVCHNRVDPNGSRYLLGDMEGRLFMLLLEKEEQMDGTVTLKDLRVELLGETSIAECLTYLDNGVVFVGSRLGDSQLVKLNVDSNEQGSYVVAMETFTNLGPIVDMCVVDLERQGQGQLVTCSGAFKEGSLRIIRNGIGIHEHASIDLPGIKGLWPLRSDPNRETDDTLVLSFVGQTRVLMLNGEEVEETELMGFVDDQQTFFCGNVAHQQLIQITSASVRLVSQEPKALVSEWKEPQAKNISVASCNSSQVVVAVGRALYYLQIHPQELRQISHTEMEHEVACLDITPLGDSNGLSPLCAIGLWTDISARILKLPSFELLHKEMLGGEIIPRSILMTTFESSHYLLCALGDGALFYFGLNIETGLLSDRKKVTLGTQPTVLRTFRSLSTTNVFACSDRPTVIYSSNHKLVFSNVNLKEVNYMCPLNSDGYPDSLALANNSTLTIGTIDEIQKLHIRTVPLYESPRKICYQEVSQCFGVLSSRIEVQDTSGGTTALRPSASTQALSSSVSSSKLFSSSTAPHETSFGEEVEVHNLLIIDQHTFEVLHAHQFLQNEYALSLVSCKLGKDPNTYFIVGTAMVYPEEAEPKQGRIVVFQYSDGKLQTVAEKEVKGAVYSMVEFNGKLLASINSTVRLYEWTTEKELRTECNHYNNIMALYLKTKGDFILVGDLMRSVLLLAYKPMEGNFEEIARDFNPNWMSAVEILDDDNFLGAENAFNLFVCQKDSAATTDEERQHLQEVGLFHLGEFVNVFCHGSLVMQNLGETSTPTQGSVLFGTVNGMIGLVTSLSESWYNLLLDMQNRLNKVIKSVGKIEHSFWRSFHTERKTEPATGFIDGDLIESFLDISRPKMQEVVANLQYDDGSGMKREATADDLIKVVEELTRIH
SMILES,Dmax [1],Ki [2]
"CCC(C)(C)c1ccc(COC(=O)NCc2ccc3c(c2)C(=O)N(C2CCC(=O)NC2=O)C3)cc1 (stereo not drawn) [Compound 36, [4-(2-methylbutan-2-yl)phenyl]methyl N-{[2-(2,6-dioxopiperidin-3-yl)-3-oxo-2,3-dihydro-1H-isoindol-5-yl]methyl}carbamate]",10 to 50%,100 to 1000 nM
"Cc1ncsc1-c1ccc(COC(=O)NCc2ccc3c(c2)C(=O)N(C2CCC(=O)NC2=O)C3)cc1 (stereo not drawn) [Compound 52, [4-(4-methyl-1,3-thiazol-5-yl)phenyl]methyl N-{[2-(2,6-dioxopiperidin-3-yl)-3-oxo-2,3-dihydro-1H-isoindol-5-yl]methyl}carbamate]",10 to 50%,≤ 100 nM
"Cc1c(COC(=O)NCc2ccc3c(c2)C(=O)N(C2CCC(=O)NC2=O)C3)cccc1-c1ccccc1 (stereo not drawn) [Compound 12, (2-methyl-[1,1′-biphenyl]-3-yl)methyl ((2-(2,6-dioxopiperidin-3-yl)-3-oxoisoindolin-5-yl)methyl)carbamate]",50 to 80%,≤ 100 nM
"O=C1CCC(N2Cc3ccc(CNc4nnc(-c5ccccc5)o4)cc3C2=O)C(=O)N1 (stereo not drawn) [Compound 72, 3-(1-oxo-6-(((5-phenyl-1,3,4-oxadiazol-2-yl)amino)methyl)isoindolin-2-yl)piperidine-2,6-dione]",10 to 50%,≤ 100 nM
"O=C1CCC(N2Cc3ccc(CNC(=O)OCc4ccc(C#CC(F)(F)F)cc4)cc3C2=O)C(=O)N1 (stereo not drawn) [Compound 50, [4-(3,3,3-trifluoroprop-1-yn-1-yl)phenyl]methyl N-{[2-(2,6-dioxopiperidin-3-yl)-3-oxo-2,3-dihydro-1H-isoindol-5-yl]methyl}carbamate]",10 to 50%,100 to 1000 nM
"O=C1CCC(N2Cc3ccc(COC(=O)NCc4ccc(OC5CCOCC5)nc4)cc3C2=O)C(=O)N1 (stereo not drawn) [Compound 2, (2-(2,6-dioxopiperidin-3-yl)-3-oxoisoindolin-5-yl)methyl((6-((tetrahydro-2H-pyran-4-yl)oxy)pyridin-3-yl)methyl)carbamate]",10 to 50%,100 to 1000 nM
"O=C1CCC(N2Cc3ccc(CNC(=O)OCc4cccc(OCC(F)(F)F)c4)cc3C2=O)C(=O)N1 (stereo not drawn) [Compound 54, [3-(2,2,2-trifluoroethoxy)phenyl]methyl N-{[2-(2,6-dioxopiperidin-3-yl)-3-oxo-2,3-dihydro-1H-isoindol-5-yl]methyl}carbamate]",10 to 50%,100 to 1000 nM
"C#CCOc1ccc(COC(=O)NCc2ccc3c(c2)C(=O)N(C2CCC(=O)NC2=O)C3)cc1 (stereo not drawn) [Compound 39, [4-(prop-2-yn-1-yloxy)phenyl]methyl N-{[2-(2,6-dioxopiperidin-3-yl)-3-oxo-2,3-dihydro-1H-isoindol-5-yl]methyl}carbamate]",10 to 50%,≤ 100 nM
"O=C1CCC(N2Cc3ccc(CNC(=O)OCc4ccc(OC(F)(F)F)cc4F)cc3C2=O)C(=O)N1 (stereo not drawn) [Compound 57, [2-fluoro-4-(trifluoromethoxy)phenyl]methyl N-{[2-(2,6-dioxopiperidin-3-yl)-3-oxo-2,3-dihydro-1H-isoindol-5-yl]methyl}carbamate]",10 to 50%,≤ 100 nM
"O=C1CCC(N2Cc3ccc(CNC(=O)OCc4ccnc(-c5ccc(F)cc5)c4)cc3C2=O)C(=O)N1 (stereo not drawn) [Compound 5, (2-(4-fluorophenyl)pyridin-4-yl)methyl((2-(2,6-dioxopiperidin-3-yl)-3-oxoisoindolin-5-yl)methyl)carbamate]",10 to 50%,100 to 1000 nM
"COc1cc(COC(=O)NCc2ccc3c(c2)C(=O)N(C2CCC(=O)NC2=O)C3)ccc1F (stereo not drawn) [Compound 44, (4-fluoro-3-methoxyphenyl)methyl N-{[2-(2,6-dioxopiperidin-3-yl)-3-oxo-2,3-dihydro-1H-isoindol-5-yl]methyl}carbamate]",10 to 50%,≤ 100 nM
"N#Cc1cc(CNc2nnc(-c3ccccc3)o2)cc2c1CN(C1CCC(=O)NC1=O)C2=O (stereo not drawn) [Compound 70, 2-(2,6-dioxopiperidin-3-yl)-1-oxo-6-(((5-phenyl-1,3,4-oxadiazol-2-yl)amino)methyl)isoindoline-4-carbonitrile]",10 to 50%,100 to 1000 nM
"COc1ccc(COC(=O)NCc2ccc3c(c2)C(=O)N(C2CCC(=O)NC2=O)C3)cc1 (stereo not drawn) [Compound 25, (4-methoxyphenyl)methyl N-{[2-(2,6-dioxopiperidin-3-yl)-3-oxo-2,3-dihydro-1H-isoindol-5-yl]methyl}carbamate]",10 to 50%,≤ 100 nM
"O=C1CCC(N2Cc3ccc(CNc4nnc(-c5ccc(OC(F)(F)F)cc5)o4)c(O)c3C2=O)C(=O)N1 (stereo not drawn) [Compound 75, 3-(7-hydroxy-1-oxo-6-(((5-(4-(trifluoromethoxy)phenyl)-1,3,4-oxadiazol-2-yl)amino)methyl)isoindolin-2-yl)piperidine-2,6-dione]",10 to 50%,100 to 1000 nM
"O=C1CCC(N2Cc3ccc(CNC(=O)OCc4ccc(OCC(F)(F)F)nc4)cc3C2=O)C(=O)N1 (stereo not drawn) [Compound 61, [6-(2,2,2-trifluoroethoxy)pyridin-3-yl]methyl N-{[2-(2,6-dioxopiperidin-3-yl)-3-oxo-2,3-dihydro-1H-isoindol-5-yl]methyl}carbamate]",10 to 50%,≤ 100 nM
"O=C1CCC(N2Cc3ccc(CNC(=O)OCc4ccc([N+](=O)[O-])cc4)cc3C2=O)C(=O)N1 (stereo not drawn) [Compound 26, (4-nitrophenyl)methyl N-{[2-(2,6-dioxopiperidin-3-yl)-3-oxo-2,3-dihydro-1H-isoindol-5-yl]methyl}carbamate]",10 to 50%,100 to 1000 nM
"O=C1CCC(N2Cc3ccc(CNC(=O)OCc4ccc(CN5CCOCC5)cc4)cc3C2=O)C(=O)N1 (stereo not drawn) [Compound 55, {4-[(morpholin-4-yl)methyl]phenyl}methyl N-{[2-(2,6-dioxopiperidin-3-yl)-3-oxo-2,3-dihydro-1H-isoindol-5-yl]methyl}carbamate]",≤ 10%,≤ 100 nM
"N#Cc1cc(CNc2nnc(-c3ccc(OC(F)(F)F)cc3)o2)cc2c1CN(C1CCC(=O)NC1=O)C2=O (stereo not drawn) [Compound 74, 2-(2,6-dioxopiperidin-3-yl)-1-oxo-6-(((5-(4-(trifluoromethoxy)phenyl)-1,3,4-oxadiazol-2-yl)amino)methyl)isoindoline-4-carbonitrile]",10 to 50%,100 to 1000 nM
"COc1ccc(-c2cccc(COC(=O)NCc3ccc4c(c3)C(=O)N(C3CCC(=O)NC3=O)C4)c2)cc1 (stereo not drawn) [Compound 58, {4′-methoxy-[1,1′-biphenyl]-3-yl}methyl N-{[2-(2,6-dioxopiperidin-3-yl)-3-oxo-2,3-dihydro-1H-isoindol-5-yl]methyl}carbamate]",10 to 50%,≤ 100 nM
"CC(C)Oc1cccc(COC(=O)NCc2ccc3c(c2)C(=O)N(C2CCC(=O)NC2=O)C3)c1 (stereo not drawn) [Compound 38, [3-(propan-2-yloxy)phenyl]methyl N-{[2-(2,6-dioxopiperidin-3-yl)-3-oxo-2,3-dihydro-1H-isoindol-5-yl]methyl}carbamate]",10 to 50%,100 to 1000 nM
"O=C1CCC(N2Cc3ccc(CNC(=O)OCc4ccc(N5CCCC5=O)cc4)cc3C2=O)C(=O)N1 (stereo not drawn) [Compound 17, 4-(2-oxopyrrolidin-1-yl)benzyl ((2-(2,6-dioxopiperidin-3-yl)-3-oxoisoindolin-5-yl)methyl)carbamate]",10 to 50%,100 to 1000 nM
